The subject of one data set is WSU-DLCL2 xenograft. Description: DLBCL xenograft model (WSU-DLCL2). In kind it is in vivo, SCID mice. Conditions: for tumor volume reduction (TVR) vs vehicle: initial study, oral QD, end of 3-week dosing, Day 35. The protocol:
Severe combined immunodeficiency (SCID) mice were implanted with human DLBCL cell line (WSU-DLCL2) into the flank. Treatment of compounds started between Day 11 and Day 14 after cell inoculation. Randomized groups of mice (n=9 to 10/group) were treated with the single agents (Compound 1, Compound A or Compound AA) or the combination of Compound 1/Compound A, Compound A/Compound AA, or Compound 1/Compound AA. Compounds were administered orally on a once daily (Compound 1 and Compound A) or twice daily […] schedule for 21 days. The positive control consisted of CHOP therapy (combination of cyclophosphamide, doxorubicin, vincristine and prednisone). Compound 1 and Compound A were formulated in CMC-Tween (carboxymethylcellulose/Tween 80/deionized water). Compound AA was suspended in DSP (dimethylsulphoxide/solutol/phosphate buffered saline).
Initial studies were conducted in order to determine the antitumor activity of Compound 1 and to identify a dose level for the combination studies. In the WSU-DLCL2 xenograft model, Compound 1 inhibited tumor growth in a dose-dependent fashion. […] In a subsequent combination study, Compound 1 was dosed at 10 mg/kg, once daily (QD). Compound A and Compound AA were dosed at 30 mg/kg (QD) and 50 mg/kg (BID), respectively.

Data set [1] concerns doxorubicin-resistant Ramos cell xenografts. Description: CIVO local injection, parental and doxorubicin-resistant RAMOS xenograft, cleaved caspase 3. In kind it is in vivo, Nu/Nu mice. Conditions: tumors harvested 24 hour post injection. The procedure: Anesthetized Nu/Nu mice harboring xenografted tumors were injected with multiple individual compounds or compound combinations, simultaneously, each into a distinct location of the tumor. Precise, controlled delivery of the compounds was evaluated for spatially defined and cellular changes around sites of tumor microinjection across xenograft models of DLBCL. Tumors were resected and injection quality was assessed by IVIS imaging of co-injected near-infrared tracking dye. Sections from representative regions down the z-axis of the tumor were prepared for staining with biomarkers of pathway inhibition and tumor response. Samples were then batch scanned in a Caliper Pannoramic slide scanner, resulting in high resolution images compatible with single cell analysis and subsequent data quantification via Presage's CIVO™ analyzer custom image analysis platform (for technology description, see R. Klinghoffer et al, AACR, 2014 and Presagebio.com).
Mice with parental or doxorubicin-resistant Ramos cell xenografts were injected locally with vehicle (4 μL), Compound 2 (13 μg in 4 μL injected), Compound 1 (39 μg in 4 μL injected), or Vincristine (1.47 μg in 4 μL (400 μM) injected). Tumors were harvested 24 hour post injection.

The next data set relates to HepG2 cells. In words: Anchorage independent growth colony formation assay, HepG2. Type of data set: cell-based, Human. Conditions: for colony formation, % of control: HepG2, single agent, 8 days. The protocol: (§1) Cell Lines/Cells. Human cell lines HepG2 and SK-Hep-1 cells were obtained from American Type Culture Collection (ATCC; Manassas, Va.). Cells were cultured in DMEM (Dulbecco's Modified Eagle's Medium) (Mediatech; Mannasas, Va.) with 10% Premium FBS (Lonza, Walkersville, Md.).
(1) Single Agent Colony Formation Assay. Nobel Agar (1.2 grams; BD; Franklin Lakes, N.J.) was placed in a 100-mL sterile bottle. Sterile water (100 mL) was added and microwaved until the agar boiled. Equal volumes of agar and 2×RPMI medium (ECE Scientific; Doylestown, Pa.) were mixed and 300 μL were transferred to each well in a 24-well flat bottom plate (BD; Franklin Lakes, N.J.). Plates were kept at 4° C. until the agar solidified. Cultures of HepG2 and SK-Hep-1 cells were harvested and resuspended in culture medium at 3.6×10^3 cells/mL. Equal volumes of agar, 2×RPMI, and cell suspension (1:1:1) were mixed in a sterile tube and 500 μL/well were immediately transferred into the 24-well plates. Plates were kept at 4° C. until the agar solidified. Culture medium (500 μL) containing compound or DMSO was added to each well (final DMSO concentration for each treatment was 0.2%). Compound 1 was tested at final concentrations of 0.1, 0.3, 1, 3, 10 and 30 μM. Cell treatments were set up in triplicate. Cells were incubated for 8-10 days at 37° C. in a 5% CO2 atmosphere. Photographs (2× magnification) of each well were taken using a Nikon DXM1200 Digital Camera and Nikon ACT1 software and saved as a TIFF file. ImageQuant TL (GE Healthcare; Piscataway, N.J.) Colony Count Software was used to count colonies. (2) Combination Study Colony Formation Assay. Nobel Agar (1.2 grams; BD; Franklin Lakes, N.J.) was placed in a 100-mL sterile bottle. Sterile water (100 mL) was added and microwaved until the agar boiled. Equal volumes of agar and 2×RPMI medium (ECE Scientific; Doylestown, Pa.) were mixed and 300 μL were transferred to each well in a 24-well flat bottom plate (BD; Franklin Lakes, N.J.). Plates were kept at 4° C. until the agar solidified. Cultures of HepG2 and SK-Hep-1 cells were harvested and resuspended in culture medium at 3.6×10^3 cells/mL. Equal volumes of agar, 2×RPMI, and cell suspension (1:1:1) were mixed in a sterile tube and 500 µL/well were immediately transferred into the 24-well plates. Plates were kept at 4° C. until the agar solidified. Culture medium (500 μL) containing compound or DMSO was added to each well (final DMSO concentration for each treatment was 0.2%). Cells were treated with single treatment as follows: Compound 1 was tested at final concentrations of 0.1 and 0.3 μM. Cell treatments were set up in triplicate. Cells were incubated for 8-10 days at 37° C. in a 5% CO2 atmosphere. Photographs (2× magnification) of each well were taken using a Nikon DXM1200 Digital Camera and Nikon ACT1 software and saved as a TIFF file. ImageQuant TL (GE Healthcare; Piscataway, N.J.) Colony Count Software was used to count colonies.
(§2) Significance versus the DMSO control was calculated using One Way ANOVA and Dunnett's Post test or unpaired t tests using GraphPad Prism v5.01.

The next data set relates to SK-Hep-1 cells. Description: Anchorage independent growth colony formation assay, SK-Hep-1. Type of data set: cell-based, Human. The protocol: as §1
(1) Single Agent Colony Formation Assay. Nobel Agar (1.2 grams; BD; Franklin Lakes, N.J.) was placed in a 100-mL sterile bottle. Sterile water (100 mL) was added and microwaved until the agar boiled. Equal volumes of agar and 2×RPMI medium (ECE Scientific; Doylestown, Pa.) were mixed and 300 μL were transferred to each well in a 24-well flat bottom plate (BD; Franklin Lakes, N.J.). Plates were kept at 4° C. until the agar solidified. Cultures of HepG2 and SK-Hep-1 cells were harvested and resuspended in culture medium at 3.6×10^3 cells/mL. Equal volumes of agar, 2×RPMI, and cell suspension (1:1:1) were mixed in a sterile tube and 500 μL/well were immediately transferred into the 24-well plates. Plates were kept at 4° C. until the agar solidified. Culture medium (500 μL) containing compound or DMSO was added to each well (final DMSO concentration for each treatment was 0.2%). Compound 1 was tested at final concentrations of 0.1, 0.3, 1, 3, 10 and 30 μM. Cell treatments were set up in triplicate. Cells were incubated for 8-10 days at 37° C. in a 5% CO2 atmosphere. Photographs (2× magnification) of each well were taken using a Nikon DXM1200 Digital Camera and Nikon ACT1 software and saved as a TIFF file. ImageQuant TL (GE Healthcare; Piscataway, N.J.) Colony Count Software was used to count colonies. (2) Combination Study Colony Formation Assay. Nobel Agar (1.2 grams; BD; Franklin Lakes, N.J.) was placed in a 100-mL sterile bottle. Sterile water (100 mL) was added and microwaved until the agar boiled. […]
as §2

For a further data set, the system named is OCI-Ly10 xenograft. In words: OCI-Ly10 DLBCL xenograft model. Type of data set: in vivo, SCID mice. Conditions: extended schedule qd×28/4/21: Compound A 10 mg/kg, Compound 1 3 mg/kg. The text has this: OCI-Ly10 cells are derived from a diffuse-large B-cell lymphoma, a type of non-Hodgkins lymphoma. Female SCID mice (Fox Chase SCID®, CB 17/Icr-Prkdcscid, Charles River), characterized by severe combined T and B cell immunodeficiency, were 10 weeks old, with body weights ranging from 15.4 to 24.2 g, on Day 1 of this study. In brief, female CB.17 SCID mice were inoculated with 5×10^6 OCI-Ly10 cells subcutaneously, and tumors were allowed to grow to approximately 100-150 mm^3 before stratification into treatment groups, so as to yield groups with comparably sized tumors prior to treatment. In addition to the efficacy treatment groups, some mice were stratified into short-term treatment groups and their tumors were collected 4 hours post final dosing in groups that received saline, 30 mg/kg or 10 mg/kg Compound A, or 3 mg/kg Compound 1 once daily for seven days, starting on day 27. Frozen, and fixed paraffin-embedded, samples were analyzed. In the efficacy arm of the study, dosing began on Day 1 (D1) in 12 groups of mice (n=10/group) with established subcutaneous tumors (mean volumes, 120-129 mm^3). Compound A (at two dose levels) and Compound 1 (at one dose level) were each administered once daily for 28 days (qd×28). Control mice received the vehicle, 5% DMSO/15% Solutol® HS15/80% PBS, p.o. b.i.d.×28. On D29 a 21-day dosing extension, from day 33 to day 53, in the control and five test groups was implemented, resulting in b.i.d.×28/4/21 or qd×28/4/21 schedules for these groups.
Tumors were calipered twice weekly, and each mouse in the efficacy study was euthanized when its tumor reached the 1000 mm^3 volume endpoint, or on day 61, whichever came first. Efficacy was determined from tumor growth delay (TGD), defined as the increase in the median time-to-endpoint (TTE) in drug-treated (T) versus vehicle-treated (C) mice, and from the significance of survival extension.

The mark [2] stands for this setting: combination study, single agents or in combination.

“Also recorded” adds a separate entry of the source.

Consider `C=CC(=O)Nc1cccc(Nc2nc(Nc3ccc(OCCOC)cc3)ncc2F)c1` [Compound AA, N-(3-(5-fluoro-2-(4-(2-methoxyethoxy)phenylamino)pyrimidin-4-ylamino)phenyl)acrylamide], for which the “antitumor activity” value in the data set with WSU-DLCL2 xenograft (combination study, Day 34, Compound 1 10 mg/kg QD, Compound A 30 mg/kg QD, Compound AA 50 mg/kg BID, combinations compared with single agent) was “No significant antitumor activity; also recorded: inactive”. Moreover, the body weight loss entry in the data set with WSU-DLCL2 xenograft (setting [2]) is listed as “No significant body weight loss”.

In the case of `CC[C@]1(O)C[C@H]2CN(CCc3c([nH]c4ccccc34)[C@@](C(=O)OC)(c3cc4c(cc3OC)N(C=O)[C@H]3[C@@](O)(C(=O)OC)[C@H](OC(C)=O)[C@]5(CC)C=CCN6CC[C@]43[C@@H]65)C2)C1` [Vincristine, reference compound], the “sensitivity of doxorubicin resistant vs parental Ramos cells (cleaved caspase 3 vs distance from injection site)” value in data set [1] is “resistant”.

As for `CO[C@H]1CC[C@H](N2C(=O)CNc3ncc(-c4ccc(C(C)(C)O)nc4)nc32)CC1` [Compound 1, 7-(6-(2-hydroxypropan-2-yl)pyridin-3-yl)-1-((1r,4r)-4-methoxycyclohexyl)-3,4-dihydropyrazino-[2,3-b]pyrazin-2(1H)-one], in the data set with WSU-DLCL2 xenograft (combination study, Day 34, Compound 1 10 mg/kg QD, Compound A 30 mg/kg QD, Compound AA 50 mg/kg BID, oral), the “decrease in tumor volume (TVR) vs vehicle” value stood at 29%. For the same compound, the body weight loss entry in the data set with WSU-DLCL2 xenograft (setting [2]) was “No significant body weight loss”; in the data set on WSU-DLCL2 xenograft (initial study, 1, 3 and 10 mg/kg), “No significant body weight loss”. The figures for the “tumor volume reduction (TVR) vs vehicle” value in the data set with WSU-DLCL2 xenograft (1 mg/kg) and with WSU-DLCL2 xenograft (3 mg/kg) were about 22% and about 28%, respectively. For the same compound, the “anti-colony forming activity” value with HepG2 cells (HepG2, concentrations of 0.1 to 100 μM) is “dose-dependent and significant anti-colony forming activity”; in the data set with SK-Hep-1 cells (SK-Hep-1, concentrations of 0.1 to 100 μM) it was “dose-dependent and significant anti-colony forming activity”. The “colony formation, % of control” value is on record as 74 % of control with HepG2 cells (0.1 μM); 57 % of control with HepG2 cells (0.3 μM); 33 % of control with HepG2 cells (1 μM); 24 % of control in the data set on HepG2 cells (3 μM); 16 % of control in the data set with HepG2 cells (10 μM); 11 % of control in the data set with HepG2 cells (30 μM). In addition, in the data set with SK-Hep-1 cells (SK-Hep-1, single agent, 0.3-30 μM, 8-10 days), the “colony formation, % of control” value is 0-45 % of control. Also, the “inhibition of colony formation” value in the data set with SK-Hep-1 cells (SK-Hep-1, single agent, 3 μM and higher) is reported as 100%. Also, the “tumor growth delay (TGD), %” value in the data set with OCI-Ly10 xenograft is reported as 73%. Moreover, in the data set on OCI-Ly10 xenograft (alone or combined), the PRs / regressions result was “one”. Moreover, the “survivors (n=10/group)” value with OCI-Ly10 xenograft (alone or combined) is “five”. For the same compound, the “tumor growth delay (TGD)” value in the data set on OCI-Ly10 xenograft (alone or combined) was 23.8 days.

For `CCN1C(=O)CNc2ncc(-c3ccc(-c4nc[nH]n4)nc3C)nc21` [Compound 2, 1-ethyl-7-(2-methyl-6-(1H-1,2,4-triazol-3-yl)pyridin-3-yl)-3,4-dihydropyrazino[2,3-b]pyrazin-2(1H)-one], in data set [1], the “sensitivity of doxorubicin resistant vs parental Ramos cells (cleaved caspase 3 vs distance from injection site)” value is “increased sensitivity; also recorded: more sensitive”.

The values above are taken from patent US9474757B2, “Methods for treating cancer using TOR kinase inhibitor combination therapy” (Signal Pharmaceuticals, LLC, priority 2013, dated 2016).
